# Laboratory results taken from patent US20260151467A1, “METHOD FOR TREATING CANCER” (THE CHILDREN'S MEDICAL CENTER CORPORATION, priority 2018, published 2026).
# B1: Wnt3A: Wnt ligand, recombinant protein (R&D systems) (protein, UniProt P56704 19-352, looked up)
# Protein Wnt-3a: SYPIWWSLAVGPQYSSLGSQPILCASIPGLVPKQLRFCRNYVEIMPSVAEGIKIGIQECQHQFRGRRWNCTTVHDSLAIFGPVLDKATRESAFVHAIASAGVAFAVTRSCAEGTAAICGCSSRHQGSPGKGWKWGGCSEDIEFGGMVSREFADARENRPDARSAMNRHNNEAGRQAIASHMHLKCKCHGLSGSCEVKTCWWSQPDFRAIGDFLKDKYDSASEMVVEKHRESRGWVETLRPRYTYFKVPTERDLVYYEASPNFCEPNPETGSFGTRDRTCNVSSHGIDGCDLLCCGRGHNARAERRREKCRCVFHWCCYVSCQECTRVYDVHTCK
# Legend:
# CCRF-CEM cells = assay: Viable cell counts (trypan blue) of CCRF-CEM cells treated with asparaginase and other agents; format: cell-based, human; conditions: for effect on Wnt-induced sensitization to asparaginase: shRNA-transduced cells, rapamycin 1 nM, RAD001 10 nM, AZD2014 10 nM; for sensitization to asparaginase by isoform-selective GSK3 inhibitor: 8 days (FIG. 4a)
# Experimental: (§1) Cells (25,000 per well) were seeded in 100 μl of complete growth medium in 96-well plates and incubated with chemotherapeutic agents or vehicle. T-ALL cells were split every 48 hours in a 1:5 ratio. Briefly, 20 μl of cells were mixed with 80 μl fresh culture medium, supplemented with vehicle or chemotherapeutic drugs at the indicated doses. AML cells were split every 72 hours as described above. Cell viability was assessed by counting viable cells based on trypan blue vital dye staining (Invitrogen), according to the manufacturer's instructions. Chemotherapeutic drugs included: PEG-asparaginase (“oncaspar”, Shire, Lexington, MA), dexamethasone (Sigma-Aldrich), vincristine (Selleckchem, Houston, TX), doxorubicin (Sigma-Aldrich), 6-mercaptopurine (Abcam, Cambridge, UK), CHIR99021 (Selleckchem), bortezomib (Selleckchem), rapamycin (Selleckchem), RAD001 (Selleckchem), AZD2014 (Selleckchem), and Wnt3A (R&D systems, Minneapolis, MN). BRD0705 and […] were synthesized as described^15. Caspase 3/7 activity was assessed using the Caspase Glo 3/7 Assay (Promega, Madison, WI) according to the manufacturer's instructions.
# [1] = system: T-ALL, acute myeloid leukemia and hypodiploid B-ALL cell lines; assay: Asparaginase sensitization across a panel of treatment-resistant acute leukemia cell lines (trypan blue counts); format: cell-based, human; conditions: CHIR99021 1 μM, 8 days
# Experimental: as §1
# [2] = system: normal human CD34+ hematopoietic progenitors; assay: Viable cell counts of normal CD34+ hematopoietic progenitors; format: cell-based; conditions: CHIR99021 1 μM, day 4
# Description: Cell lines and cell culture. 293T cells, T-ALL cell lines, AML cell lines and B-ALL cell lines were obtained from ATCC (Manassas, VA, USA), DSMZ (Braunschweig, Germany), the A. Thomas Look laboratory (Boston, MA, USA) or Alex Kentsis laboratory (New York, NY, USA) and cultured in DMEM, RPMI 1640 or MEM alpha (Thermo Fisher Scientific) with 10% or 20% fetal bovine serum (FBS, Sigma-Aldrich, Saint Louis, MO) or TET system approved FBS (Clontech, Mountain View, CA) and 1% penicillin/streptomycin (Thermo Fisher Scientific) at 37° C., 5% CO2. Human CD34+ progenitor cells from mobilized peripheral blood of healthy donors were obtained from Fred Hutchinson Cancer Research Center (Seattle, WA, USA) (e.g., found on the world wide web at sharedresources.fredhutch.org/products/cd34-cells). […]
# Cells (25,000 per well) were seeded in 100 μl of complete growth medium in 96-well plates and incubated with chemotherapeutic agents or vehicle. […] Cell viability was assessed by counting viable cells based on trypan blue vital dye staining (Invitrogen), according to the manufacturer's instructions. […] Caspase 3/7 activity was assessed using the Caspase Glo 3/7 Assay (Promega, Madison, WI) according to the manufacturer's instructions.
# HCT-15 cells = assay: Chemotherapy response of colon cancer cell lines (trypan blue counts), HCT-15; format: cell-based, human; conditions: 10 days; Rspondin3 75 ng/ml and Wnt3a 100 ng/ml; inhibitors 1 μM
# Experimental: (§2) Cells (100,000 per well) were seeded in […] of complete growth medium in 12-well plates and incubated with chemotherapeutic agents or vehicle. Cells were split every 48 hours and cell viability was assessed by counting viable cells based on trypan blue vital dye staining (Invitrogen), according to the manufacturer's instructions. Chemotherapeutic drugs included: asparaginase (pegaspargase, Shire, Lexington, MA), CHIR99021 (Selleckchem), recombinant human Wnt3A protein (R&D systems, Minneapolis, MN) and recombinant human R-Spondin 3 protein (R&D systems, Minneapolis, MN). BRD0705 and BRD3731 were synthesized as described (Wagner et al., 2018). Caspase 3/7 activity was assessed using the Caspase Glo 3/7 Assay (Promega, Madison, WI) according to the manufacturer's instructions.
# SW-480 cells = assay: Chemotherapy response of colon cancer cell lines (trypan blue counts), SW-480; format: cell-based, human; conditions: 10 days; Rspondin3 75 ng/ml and Wnt3a 100 ng/ml; inhibitors 1 μM
# Experimental: as §2
# CCD-841 cells = assay: Viable cell counts of normal colonic epithelium cells; format: cell-based, human; conditions: CHIR99021 1 μM, 10 days
# Experimental: as §2
# [3] = system: asparaginase-resistant T-ALL patient-derived xenograft; assay: T-ALL patient-derived xenograft in NRG mice, survival; format: in vivo, mouse
# Experimental: Mice were exposed to a sub-lethal dose of radiation (4.5 Gy) and subsequently injected with human leukemia cells. All injections were performed by tail vein injection. Blood collections were performed to monitor leukemia onset in mice injected with leukemic cells, which was assessed by staining for human CD45 expression using anti-human CD45-PE-Cy7 (1:400, BD #560915) antibody staining. As soon as leukemia engraftment was confirmed based on ≥5% human leukemia cells in the peripheral blood, treatment of mice was begun. Asparaginase (1,000 U/kg) or PBS were injected by tail vein injection as a single dose on day 1 of drug treatment, and BRD0705 (15 mg/kg) or vehicle were given every 12 hours for 12 days by oral gavage. Vehicle was formulated as previously described.^15 Mice were anesthetized with isoflurane (Patterson Veterinary, Greeley, CO) prior to gavage. After start of treatment, body weight was monitored every third day. To assess bilirubin levels, mandibular blood vein collection was performed, and bilirubin levels were measured in the Boston Children's Hospital clinical laboratory. The primary endpoint of this experiment was survival. Mice were euthanized as soon as they developed weight loss greater than 15% or signs/symptoms of progressing disease. Post-mortem analysis of leukemic burden was performed by extracting bone marrow cells, which were filtered through a […] mesh filter and red blood cells were lysed using the BD Biosciences Red Blood Cell Lysis reagent (BD #555899). Isolated bone marrow cells were stained for assessment of leukemic burden using following antibodies from BD Biosciences: Anti-human CD4-APC-Cy7 (1:100, BD #561839) and anti-human CD8-PerCP-Cy5.5 (1:100, BD #560662).
# Apc-deficient organoids = assay: Chemotherapy response in mouse intestinal organoids, Apc-deficient; format: cell-based; conditions: asparaginase 100 U/L, BRD0705 1 μM or both, 10 days
# Experimental: For assessment of chemotherapy response in mouse intestinal organoids, Apc-deficient and Rspo3 fusion organoids were cultured in basal organoid medium (medium not containing murine Wnt3A, murine Noggin and human R-spondin1 protein). A full 0.95 cm2 well of organoids was split into new wells, aiming to obtain approximately 25 organoids per well. Organoids were split according to previously published protocols (O'Rourke et al., 2016). Matrigel and basal organoid culture medium were supplemented with vehicle or chemotherapeutic agents, and split every 48 hours. After 10 days in culture, total organoid numbers per wells were counted by light microscopy. Microscopy was performed using an 100× objective on an Axio Imager A1 microscope (Zeiss, Oberkochen, Germany), with images captured using a CV-A10 digital camera (Jai, Yokohama, Japan) and Cytovision software (Leica Biosystems, Wetzlar, Germany).
# Organoids touching the edge of a well were excluded from counting. Images were taken from a representative of three independent experiments and analyzed with ImageJ Software (Schneider et al., 2012).
# [4] = system: APC-mutant CRC patient-derived xenograft; assay: APC-mutant human CRC patient-derived xenograft in nude mice; format: in vivo, mouse; conditions: asparaginase 1000 U/kg×1 dose; BRD0705 every 12 hours×21 days
# Experimental: For implantation of APC mutant human CRC PDX, patient tumor material was collected in PBS and kept on wet ice for engraftment within 24 h after resection. Upon arrival, necrotic and supporting tissues were carefully removed using a surgical blade. Approximately 1 mm×1 mm tissue fragments were implanted subcutaneously into the flank region of male nude mice, as described (Bullman et al., 2017). For injection of intestinal organoids (Rspo3; p53; Kras, or Apc; p53; Kras), per mouse one full […] well of organoids was injected subcutaneously.
# As soon as tumors reached a volume of approximately 150 mm3, treatment of mice was begun. […] Vehicle was formulated as previously described (Wagner et al., 2018).
# After start of treatment, body weight and tumor size were evaluated every other day. Tumor size was assessed by caliper measurements and the approximate volume of the mass was calculated using the formula (l×w×w)×(π/6), where 1 is the major tumor axis and w is the minor tumor axis.
molecule,measurement,setting,value
CO[C@H]1C[C@@H]2CC[C@@H](C)[C@@](O)(O2)C(=O)C(=O)N2CCCC[C@H]2C(=O)O[C@H]([C@H](C)C[C@@H]2CC[C@@H](OCCO)[C@H](OC)C2)CC(=O)[C@H](C)/C=C(\C)[C@@H](O)[C@@H](OC)C(=O)[C@H](C)C[C@H](C)/C=C/C=C/C=C/1C [RAD001],effect on Wnt-induced sensitization to asparaginase,CCRF-CEM cells; 8 days,had no effect
Cc1c[nH]c(-c2cnc(NCCNc3ccc(C#N)cn3)nc2-c2ccc(Cl)cc2Cl)n1 [CHIR99021],sensitization to other antileukemic drugs,"CCRF-CEM cells; CHIR99021 1 μM, 8 days, vincristine, 6-mercaptopurine, dexamethasone, doxorubicin",Nor did it sensitize leukemic cells to other commonly used antileukemic drugs
same,asparaginase sensitization,[1],induced significant asparaginase sensitization
same,toxicity of asparaginase to normal progenitors with GSK3 inhibitor,[2],did not increase the toxicity of asparaginase
same,sensitization to asparaginase,HCT-15 cells,sufficient to induce asparaginase sensitization
same,sensitization to asparaginase,SW-480 cells,sufficient to induce asparaginase sensitization
same,toxicity of GSK3 inhibition combined with asparaginase to normal colonic cells,CCD-841 cells,little toxicity
CC[C@@]1(c2ccccc2)C2=C(CC(C)(C)CC2=O)Nc2[nH]ncc21 [BRD0705],sensitization to asparaginase by isoform-selective GSK3 inhibitor,CCRF-CEM cells,effectively sensitizes
same,difference in survival between vehicle and monotherapy groups (log-rank),"[3]; FIG. 4D, Kaplan-Meier",not significant
same,efficacy against xenograft (survival),"[3]; asparaginase 1,000 U/kg i.v. single dose, BRD0705 15 mg/kg oral gavage every 12 hours for 12 days",highly resistant
same,sensitization to asparaginase,HCT-15 cells,sensitized
same,sensitization to asparaginase,SW-480 cells,sensitized
same,toxicity to organoids (viable organoid count),Apc-deficient organoids,little toxicity
same,activity on tumor growth,[4],no activity
CC(C)(C)Cc1[nH]nc2c1[C@](C)(c1ccccc1)C1=C(CC(C)(C)CC1=O)N2 [BRD3731],sensitization to asparaginase by isoform-selective GSK3 inhibitor,CCRF-CEM cells,only modest effects
same,sensitization to asparaginase,HCT-15 cells,had little effect
same,sensitization to asparaginase,SW-480 cells,had little effect
CC(C)C[C@H](NC(=O)[C@H](Cc1ccccc1)NC(=O)c1cnccn1)B(O)O [bortezomib],single-agent toxicity,CCRF-CEM cells; 10 nM dose,lacked single-agent toxicity
same,sensitization to asparaginase by proteasome inhibition,"CCRF-CEM cells; bortezomib 10 nM, 8 days",phenocopied Wnt-induced sensitization to asparaginase
same,"toxicity (viability), dose range","CCRF-CEM cells; indicated doses, 48 hours (FIG. 10)",highly toxic at intermediate doses
CNC(=O)c1cccc(-c2ccc3c(N4CCOC[C@@H]4C)nc(N4CCOC[C@@H]4C)nc3n2)c1 [AZD2014],effect on Wnt-induced sensitization to asparaginase,CCRF-CEM cells; 8 days,had no effect
B1,sensitization to asparaginase by Wnt ligand,"CCRF-CEM cells; 100 ng/ml Wnt3A, 8 days",phenocopied
